Reference: the supplement of paper PMC6045584
± gives the standard deviation of the averaged measurements.

Assays:
[1] = compound: CCn1c(C(=O)N(C2CC2)C2CC2)cc2c3c(ncn3C)c(Nc3cc(C)n(C)n3)nc21; assay: surviving fraction relative to DMSO-only wells; higher = less growth inhibition; details: exposure time: 5 days
How it was run: (§1)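 Log-phase tumour cell lines were seeded at 250–500 cells per well in 384-well plates. After 24 hours they were exposed continuously for five days to inhibitors at 0.5, 1, 5, 10, 50, 100, 500 and 1000 nM. Viability was read by CellTiter-Glo luminescence after 10 minutes at room temperature, and surviving fraction is luminescence normalised to the median of DMSO-only wells. Each line was screened three times and kept only if replicate Pearson r >0.7 and median Z' >0.3.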

[2] = compound: C[C@]12CC[C@H](O)CC1=CC[C@@H]1[C@@H]2CC[C@]2(C)C(c3cccnc3)=CC[C@@H]12 [ABIRATERONE]; assay: as above; details: exposure time: 5 days
How it was run: as §1

Test System	surviving fraction ([1]; 0.5 nM)	surviving fraction ([1]; 1 nM)	surviving fraction ([1]; 5 nM)	surviving fraction ([1]; 10 nM)	surviving fraction ([1]; 50 nM)	surviving fraction ([1]; 100 nM)	surviving fraction ([1]; 500 nM)	surviving fraction ([1]; 1000 nM)	surviving fraction ([2]; 0.5 nM)	surviving fraction ([2]; 1 nM)	surviving fraction ([2]; 5 nM)	surviving fraction ([2]; 10 nM)	surviving fraction ([2]; 50 nM)	surviving fraction ([2]; 100 nM)	surviving fraction ([2]; 500 nM)	surviving fraction ([2]; 1000 nM)
SG43 HEADNECK	1.02 ± 0.22	1.02 ± 0.15	0.746 ± 0.015	0.935 ± 0.19	1.08 ± 0.27	0.767 ± 0.2	0.962 ± 0.31	0.784 ± 0.22	1.23 ± 0.2	1.1 ± 0.39	0.922 ± 0.036	0.934 ± 0.21	1.02 ± 0.51	0.995 ± 0.12	0.967 ± 0.13	0.987 ± 0.2
SIHA CERVIX	0.868 ± 0.064	0.906 ± 0.052	0.991 ± 0.036	0.965 ± 0.041	1.04 ± 0.068	1.08 ± 0.057	0.983 ± 0.11	0.91 ± 0.078	1.16 ± 0.013	1.15 ± 0.016	1.18 ± 0.11	1.12 ± 0.086	1.18 ± 0.064	1.22 ± 0.046	1.27 ± 0.06	1.16 ± 0.056
SJSA1 BONE	1.03 ± 0.041	1.01 ± 0.028	1.02 ± 0.028	1.01 ± 0.057	1.06 ± 0.021	1.07 ± 0.022	1.059 ± 0.007	1.05 ± 0.034	1.04 ± 0.051	1.09 ± 0.086	1.13 ± 0.032	1.1 ± 0.026	1.11 ± 0.037	1.15 ± 0.031	1.1 ± 0.015	1.04 ± 0.073
SKBR3 BREAST	0.949 ± 0.15	1.07 ± 0.11	0.955 ± 0.11	1.04 ± 0.12	1.08 ± 0.12	1.1 ± 0.049	1.04 ± 0.081	0.999 ± 0.14	0.995 ± 0.11	1.07 ± 0.073	1.2 ± 0.17	0.924 ± 0.1	1.11 ± 0.18	1.14 ± 0.068	1.08 ± 0.1	0.918 ± 0.18
SNU475 LIVER	0.974 ± 0.012	0.957 ± 0.049	0.973 ± 0.025	0.989 ± 0.026	0.979 ± 0.051	0.959 ± 0.017	0.938 ± 0.0085	0.895 ± 0.039	1.03 ± 0.024	1.07 ± 0.035	1.05 ± 0.035	1.06 ± 0.045	1.02 ± 0.03	1.02 ± 0.071	1 ± 0.085	1.04 ± 0.016
SUM44 BREAST	0.98 ± 0.056	1 ± 0.0096	1.04 ± 0.026	0.997 ± 0.086	1.03 ± 0.08	1.12 ± 0.025	1.02 ± 0.068	1.01 ± 0.057	0.949 ± 0.017	0.962 ± 0.057	1.02 ± 0.037	0.991 ± 0.045	1.06 ± 0.034	1.12 ± 0.07	1.1 ± 0.047	1.03 ± 0.031
SUM149 BREAST	1.04 ± 0.093	1.05 ± 0.12	1.07 ± 0.059	1.06 ± 0.026	1.04 ± 0.05	1.04 ± 0.16	1.06 ± 0.037	1.1 ± 0.16	1.05 ± 0.046	1.006 ± 0.01	1.07 ± 0.014	1.04 ± 0.038	0.947 ± 0.085	0.872 ± 0.1	0.902 ± 0.069	0.892 ± 0.071
SUM149.B1*.S BREAST	1.05 ± 0.053	0.99 ± 0.02	1.05 ± 0.014	1 ± 0.013	1.08 ± 0.045	1.11 ± 0.018	1.07 ± 0.011	1.08 ± 0.033	1.11 ± 0.055	1.11 ± 0.047	1.2 ± 0.05	1.12 ± 0.071	1.21 ± 0.062	1.21 ± 0.074	1.19 ± 0.028	1.2 ± 0.078
